This is an account of results in patent US9809602B2, “Compounds for treating viral infections” (INSTITUT PASTEUR KOREA, priority 2014, dated 2017).

Molecules are shown by their SMILES. pEC50: −log10 of the molar value. Some results are limits rather than exact numbers.

One test deals with genotype 1/2 chimeric cell culture derived HCV (HCVcc). The test is described as follows: Genotype 1/2 chimeric HCVcc assay (nano-luciferase, HCV replication). Format: cell-based. The conditions noted are these: Hepatitis C virus. Put shortly:
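Huh-7.5 cells (2400/well) pretreated 2 h with serially diluted compound, then infected with nano-luciferase genotype 1a/2a (JFH-1) chimeric HCVcc. At 72 h post infection, nano-luciferase reported replication and cellular ATP reported cytotoxicity; EC50 and CC50 by non-linear regression.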
As to `O=C(NCCCN1CCC(N2CCCCC2)CC1)c1ccc(-c2ccc(C(F)(F)F)cc2)cn1` [Compound 1102], the pEC50 (as a rule, the negative decadic logarithm of the EC50, by convention in mol/L) is 6.00 to 7.00.

In turn, `COc1cc(-c2ccc(C(F)(F)F)cc2)ccc1C(=O)NCCCN1CCC(N2CCCCC2)CC1` [Compound 1155] had a negative-log EC50 (pEC50) of 6.00 to 7.00. On the same count and under the same terms, with `O=C(NCCCN1CCC(N2CCCCC2)CC1)c1cc2c(s1)CCCC2` [Compound 1002] the figure was less than 5.00; with `O=C(NCCCN1CCC(N2CCCCC2)CC1)c1ccc(-c2ccc3occc3c2)cc1` [Compound 1126], 6.00 to 7.00; with `COc1ccccc1Oc1ccc(C(=O)NCCCN2CCC(N3CCCCC3)CC2)cc1` [Compound 1063], less than 5.00. On the same count and under the same terms, with `O=C(NCCCN1CCC(N2CCCCC2)CC1)c1ccc(N2CCCCC2)cc1` [Compound 1030] the figure was 5.00 to 6.00. On the same count and under the same terms, with `O=C(NCCCN1CCC(N2CCCCC2)CC1)c1ccc2oc3ccccc3c2c1` [Compound 1074] the figure was 5.00 to 6.00; with `O=S(=O)(NCCCCN1CCC(N2CCCCC2)CC1)c1ccc(-c2ccc(C(F)(F)F)cc2)cc1` [Compound 1095], 6.00 to 7.00; with `O=C(CCCN1CCC(N2CCCCC2)CC1)Nc1ccc(-c2ccc(C(F)(F)F)cc2)cc1F` [Compound 1114], 6.00 to 7.00. The molecule `O=C(NCCCN1CCC(N2CCCCC2)CC1)c1ccc(N2CCOCC2)cc1` [Compound 1029] showed a negative logarithm of the EC50 (pEC50) of less than 5.00. Molecule `O=C(NCCCN1CCC(N2CCCCC2)CC1)Nc1ccc(-c2ccc(C(F)(F)F)cc2)cc1` [Compound 1118] had a pEC50 of 6.00 to 7.00. Still for that read-out and setting: with `O=C(NCCNc1ccc(N2CCCCC2)cc1)c1ccc(Oc2ccccc2)cc1` [Compound 1057] the figure was 5.00 to 6.00. Still for that read-out and setting: in the case of `O=C(NCCCN1CCC(N2CCCCC2)CC1)c1ccc(-c2ccc(C(F)(F)F)cc2)cc1C(F)(F)F` [Compound 1104] it was 6.00 to 7.00. The same measure, in the same setting: in the case of `O=C(NC/C=C/CN1CCC(N2CCCCC2)CC1)c1ccc(Oc2ccccc2)cc1` [Compound 1076] it was 6.00 to 7.00; in that of `CN1CCN(C(=O)c2ccc(-c3ccc(C(=O)NCCCN4CCC(N5CCCCC5)CC4)cc3)cc2)CC1` [Compound 1151], less than 5.00. With `O=C(NCCCN1CCC(N2CCCCC2)CC1)c1ccc(-c2ccccc2C(F)(F)F)cc1` [Compound 1028], the pEC50 was 6.00 to 7.00.

Molecule `O=C(NCCCN1CCC(N2CCCCC2)CC1)c1cccc(Oc2ccccc2)c1` [Compound 1031] showed a pEC50 of 5.00 to 6.00. On the same count and under the same terms, with `O=C(NCCCN1CCC(N2CCCCC2)CC1)c1ccc(-c2ccncc2)cc1` [Compound 1024] the figure was less than 5.00; with `O=C(NCCCN1CCC(N2CCCCC2)CC1)c1cccc(-c2ccccc2)c1` [Compound 1025], 5.00 to 6.00.

The test is the same for the next values; noted with them: Hepatitis C virus, Huh7.5, 72 h.
Regarding `CCOC(=O)c1c(NC(=O)NCc2c(Br)sc3c2CCN(C)C3)sc2c1CCCC2` [Compound 199], the pEC50 is more than 7.00. Still for that read-out and setting: in the case of `CCc1sc2c(c1CNC(=O)Nc1sc3c(c1C(=O)OC(C)(C)C)CCOC3)CCNC2` [Compound 333] it was more than 7.00. Same read-out and setting: with `CCOC(=O)c1c(NC(=O)NCc2c(-n3cccc3)sc3c2CCNC3)sc2ccccc12` [Compound 63] the figure was 6.00 to 7.00; with `CC(C)(C)OC(=O)c1c(NC(=O)NCc2c(C(F)(F)F)sc3c2CCNC3)sc2c1CCCCC2` [Compound 245], more than 7.00; with `CCN1CCc2c(sc(-n3cccc3)c2CNC(=O)Nc2sc3c(c2C(=O)NCCCCNC(=O)CCCCCN)CCCC3)C1` [Compound 88], 5.00 to 6.00. In turn, `CC(C)(C)OC(=O)c1c(NC(=O)NCc2c(-n3cccc3)sc3c2CCN(CCF)C3)sc2c1CCCC2` [Compound 242] gave a pEC50 of more than 7.00.

`CC(C)(C)OC(=O)c1c(NC(=O)NCc2c(-n3cccc3)sc3c2CCNC3)sc2c1CCC2` [Compound 277]: the pEC50 was more than 7.00. The same measure, in the same setting: in the case of `CC(C)(C)OC(=O)c1c(NC(=O)NCc2c(-c3cnc(Sc4ccccc4)nc3)sc3c2CCNC3)sc2c1CCCC2` [Compound 323] it was 6.00 to 7.00; in that of `CCN1CCc2c(sc(-n3cccc3)c2C(C)(C)NC(=O)Nc2sc3c(c2C(=O)OC(C)(C)C)CCCC3)C1` [Compound 202], 5.00 to 6.00. The same measure, in the same setting: with `CCc1c(C)sc(NC(=O)NCc2c(C(F)(F)F)sc3c2CCNC3)c1C(=O)OC(C)(C)C` [Compound 268] the figure was more than 7.00; with `CCOC(=O)c1c(NC(=S)NCc2c(-n3cccc3)sc3c2CCN(CC)C3)sc2c1CCCC2` [Compound 44], more than 7.00. Same read-out and setting: in the case of `CCOC(=O)c1c(NC(=O)NCc2c(-c3ccco3)sc3c2CCNC3)sc2c1CCCC2` [Compound 338] it was more than 7.00. The molecule `Cc1sc(NC(=O)NCc2c(Br)sc3c2CCNC3)c(C(=O)OC(C)(C)C)c1C` [Compound 138] showed a pEC50 of more than 7.00.

On to `O=C(NCc1c(-c2ccoc2)sc2c1CCNC2)Nc1sc2c(c1C(=O)OC1CCOC1)CCOC2` (centres unmarked) [Compound 337], for which the pEC50 was more than 7.00.

The molecule `O=C(NCc1c(C(F)(F)F)sc2c1CCNC2)Nc1sc2c(c1C(=O)OC1CCOC1)CCOC2` (centres unmarked) [Compound 336] showed a pEC50 of more than 7.00.

Regarding `CN1CCc2c(sc(-n3cccc3)c2CNC(=O)Nc2sc3c(c2C(=O)OC(C)(C)C)CCOC3)C1` [Compound 236], the pEC50 was more than 7.00. Same read-out and setting: in the case of `CN(C)CCN1CCc2c(sc(-c3cccc(Cl)c3)c2CNC(=O)Nc2sc3c(c2C(=O)OC(C)(C)C)CCCC3)C1` [Compound 358] it was more than 7.00. Same read-out and setting: in the case of `CCOC(=O)c1c(NC(=O)NCc2c(-n3cccc3)sc3c2CCN(CC)C3)sc2c1CCN(C(C)=O)C2` [Compound 47] it was more than 7.00.

As for `CCOC(=O)c1c(NC(=O)NCc2c(Br)sc3c2CCNC3)sc2c1CCCC2` [Compound 81], the pEC50 was more than 7.00. Same read-out and setting: in the case of `CC(C)(C)OC(=O)c1c(NC(=O)NCc2c(-c3cc(F)cc(C(F)(F)F)c3)sc3c2CCNC3)sc2c1CCCC2` [Compound 246] it was 5.00 to 6.00. With `O=C(NCc1c(C(F)(F)F)sc2c1CCNC2)Nc1sc2c(c1C(=O)OC1CCCC1)CCCC2` [Compound 235], the negative-log EC50 (pEC50) was more than 7.00.

In the case of `CCOC(=O)c1c(NC(=O)NCc2c(-n3cccc3)sc3c2CCN(CC)C3)sc2c1CC(C)CC2` (centres unmarked) [Compound 192], the pEC50 is more than 7.00.

Molecule `CN1CCc2c(sc(Br)c2CNC(=O)Nc2sc3c(c2C(=O)OC(C)(C)C)CCCCC3)C1` [Compound 279] showed a pEC50 of more than 7.00.

`CCN1CCc2c(sc(-n3cccc3)c2CNC(=O)Nc2sc3c(c2C(=O)N(C)C)CCCC3)C1` [Compound 122] had a pEC50 of 6.00 to 7.00. Still for that read-out and setting: in the case of `CCN1CCc2c(sc(-n3cccc3)c2CNC(=O)Nc2sc3c(c2C(=O)NN2CCN(C)CC2)CCCC3)C1` [Compound 253] it was 6.00 to 7.00. The molecule `CCOC(=O)c1c(NC(=O)NCc2c(-n3cccc3)sc3c2CCNC3)sc(C)c1C` [Compound 70] showed a pEC50 of 6.00 to 7.00. Molecule `CC(C)(C)OC(=O)c1c(NC(=O)NCc2c(-c3cncc(F)c3)sc3c2CCNC3)sc2c1CCCC2` [Compound 248] gave a negative logarithm of the EC50 (pEC50) of more than 7.00.

On to `CCOC(=O)c1c(NC(=O)NCc2c(N3CCOCC3)sc3c2CCNC3)sc2c1CCCC2` [Compound 54], for which the pEC50 was 6.00 to 7.00.

Regarding `CC(C)(C)OC(=O)c1c(NC(=O)NCc2c(-c3cccc(O)c3)sc3c2CCNC3)sc2c1CCCC2` [Compound 252], the pEC50 was 6.00 to 7.00. `CCOC(=O)c1c(NC(=O)NCc2c(N3CCCC3)sc3c2CCNC3)sc2c1CCCC2` [Compound 125] showed a pEC50 of 6.00 to 7.00. In turn, `CC(C)(C)OC(=O)c1c(NC(=O)NCc2c(-n3cccc3)sc3c2CCN(CC(F)(F)F)C3)sc2c1CCCC2` [Compound 240] had a pEC50 of more than 7.00. Same read-out and setting: with `Cc1sc(NC(=O)C(=O)NCc2c(-n3cccc3)sc3c2CCNC3)c(C(=O)OC(C)(C)C)c1C` [Compound 361] the figure was 6.00 to 7.00. On the same count and under the same terms, in the case of `CC(C)N1CCc2c(sc(Br)c2CNC(=O)Nc2sc3c(c2C(=O)OC(C)(C)C)CCCC3)C1` [Compound 187] it was more than 7.00; in that of `COC(=O)c1c(NC(=O)NCc2c(Br)sc3c2CCN(C)C3)sc2c1CCCC2` [Compound 175], more than 7.00.

In turn, `CC1CCc2c(sc(NC(=O)NCc3c(C(F)(F)F)sc4c3CCNC4)c2C(=O)OC(C)(C)C)C1` (centres unmarked) [Compound 212] showed a pEC50 of more than 7.00. Same read-out and setting: with `CC(C)(C)OC(=O)c1c(NC(=O)NCc2c(-c3ccsc3)sc3c2CCNC3)sc2c1CCCC2` [Compound 203] the figure was more than 7.00; with `CCOC(=O)c1c(NC(=O)NCc2c(N3CCCC3)sc3c2CCN(C(=O)OC(C)(C)C)C3)sc2c1CCCC2` [Compound 73], more than 7.00. In turn, `CN1CCc2c(sc(Br)c2CNC(=O)Nc2sc3c(c2C(=O)OC(C)(C)C)CCC3)C1` [Compound 299] showed a pEC50 of more than 7.00. The same measure, in the same setting: in the case of `CN1CCc2c(sc(-n3cccc3)c2CNC(=O)Nc2sc3c(c2C(=O)OC(C)(C)C)CCC3)C1` [Compound 298] it was more than 7.00; in that of `CN1CCc2c(sc(-n3cccc3)c2CNC(=O)Nc2sc3c(c2C(=O)OC(C)(C)C)CCCC3)C1` [Compound 68], more than 7.00; in that of `CCOC(=O)c1c(NC(=O)NCc2c(Br)sc3c2CCNC3)sc2c1CCC(C)C2` (centres unmarked) [Compound 165], more than 7.00.

`CCOC(=O)c1c(NC(=O)NCc2c(-n3cccc3)sc3c2CCN(CC)C3)sc(N2CCOCC2)c1C` [Compound 33]: the pEC50 was 6.00 to 7.00.

`CCN1CCc2c(sc(-n3cccc3)c2CNC(=O)Nc2sc3c(c2C(=O)NNC(C)C)CCCC3)C1` [Compound 209] showed a pEC50 of more than 7.00.

Molecule `CCc1cc(C(=O)OC(C)(C)C)c(NC(=O)NCc2c(C(F)(F)F)sc3c2CCNC3)s1` [Compound 354] showed a pEC50 of more than 7.00. Same read-out and setting: with `CCN1CCc2c(sc(Br)c2CNC(=O)Nc2sc3c(c2C(=O)OC(C)(C)C)CCC3)C1` [Compound 300] the figure was more than 7.00; with `CCOC(=O)c1c(NC(=O)NCc2csc3c2CCCC3)sc2c1CCCC2` [Compound 35], more than 7.00; with `CCOC(=O)c1c(NC(=O)NCc2c(-n3cccc3)sc3c2CCN(C)C3)sc2c1CCC(C)C2` (centres unmarked) [Compound 154], more than 7.00. `O=C(NCc1c(-n2cccc2)sc2c1CCNC2)Nc1sc2c(c1C(=O)NCc1ccccc1)CCCC2` [Compound 82]: the pEC50 was 6.00 to 7.00.

In turn, `CN1CCN(C(=O)c2c(NC(=O)NCc3c(-n4cccc4)sc4c3CCNC4)sc3c2CCCC3)CC1` [Compound 84] showed a pEC50 of 5.00 to 6.00.
